Assay results published in US5135947A, “1-phenyl-3-naphthalenyloxypropanamines and their use as selective serotonin reuptake inhibitors” (Eli Lilly and Company, priority 1990, dated 1992).
Counter-ions that a name gives are not always drawn.

System: 5HT uptake
Experiment: Inhibition of 5HT uptake in vitro (synaptosomal uptake of 3H-serotonin, rat cortical synaptosomes)
Assay type: biochemical, rat (male Sprague-Dawley)
Conditions: 50 nM 3H-5HT, cortical synaptosomes, 37° C., 5 min
Experimental: This general procedure is set forth by Wong et al., in Drug Development Research 6:397-403 (1985).
Male Sprague-Dawley rats (110-150 g) from Harlan Industries (Cumberland, Ind.) were fed Purina Chow ad libitum for at least 3 days before being used in the studies. Rats were killed by decapitation. Whole brains were removed and dissected. Cerebral cortex was homogenized in 9 volumes of a medium containing 0.32M sucrose and 10 mM glucose. Crude synaptosomal preparations were isolated after differential centrifugation at 1,000 g for 10 min. and 17,000 g for 28 min. The final pellets were suspended in the same medium and kept in ice until use within the same day.
Synaptosomal uptake of ^3 H-serotonin(^3 H-5-hydroxytryptamine, ^3 H-5HT) was determined as follows. Cortical synaptosomes (equivalent to 1 mg of protein) were incubated at 37° C. for 5 min in 1 ml of Krebs-bicarbonate medium containing also 10 mM glucose, 0.1 mM iproniazid, 1 mM ascorbic acid, 0.17 mM EDTA and 50 nM ^3 H-5HT The reaction mixture was immediately diluted with 2 ml of ice-chilled Krebs-bicarbonatebuffer and filtered under vacuum with a cell harvester (Brandel, Gaithersburg, Md.). Filters were rinsed twice with approximately 5 ml of ice-chilled 0.9% saline and were transferred to a counting vial containing 10 ml of scintillation fluid (PCS, Amersham, Arlington Heights, Ill.). Radioactivity was measured by a liquid scintillation spectrophotometer. Accumulation of ^3 H-5HT at 4° C. represented the background and was subtracted from all samples.
The numbers in parentheses represent percent inhibition at 1000 nM.

| SMILES | IC50 |
| --- | --- |
| NC(CCOc1cccc2ccccc12)c1ccccc1 (stereo not shown) [Example 35, 1-Phenyl-3-(1-naphthalenyloxy)propanamine oxalate] | 80 nM |
| CNC(CCOc1cccc2ccccc12)c1ccccc1 (stereo not shown) [Example 33, N-Methyl-1-phenyl-3-(1-naphthalenyloxy)propanamine oxalate] | 35 nM |
| CN(C)C(CCOc1cccc2ccccc12)c1cccc(C(F)(F)F)c1 (stereo not shown) [Example 9, N,N-Dimethyl-1-[3-(trifluoromethyl)phenyl]-3-(1-naphthalenyloxy)propanamineoxlate] | 500 nM |
| Cc1ccccc1C(CCOc1cccc2ccccc12)N(C)C (stereo not shown) [Example 30, N,N-Dimethyl-1-(2-methylphenyl)-3-(1-naphthalenyloxy)propanamine oxalate] | 10 nM |
| CN(C)C(CCOc1cccc2ccccc12)c1ccccc1C(F)(F)F (stereo not shown) [Example 7, N,N-Dimethyl-1-[2-(trifluoromethyl)phenyl]-3-(1-naphthalenyloxy)propanamineoxalate] | 260 nM |
| CNC(CCOc1cccc2ccccc12)c1ccc2c(c1)OCO2 (stereo not shown) [Example 24, oxalate] | 47 nM |
| CN(C)C(CCOc1cccc2ccccc12)c1ccccc1Cl (stereo not shown) [Example 11, N,N-Dimethyl-1-(2-chlorophenyl)-3-(1-naphthalenyloxy)propanamine oxalate] | 33 nM |
| Cc1ccc(OCCC(c2ccccc2)N(C)C)c2ccccc12 (stereo not shown) [Example 2, N,N-Dimethyl-1-phenyl-3-(4-methyl-1-naphthalenyloxy)propanamine oxalate] | 25 nM |
| Cc1cccc(C(CCOc2cccc3ccccc23)N(C)C)c1 (stereo not shown) [Example 32, N,N-Dimethyl-1-(3-methylphenyl)-3-(1-naphthalenyloxy)propanamine oxalate] | 13 nM |
| CN(C)C(CCOc1cccc2ccccc12)c1ccc(C(F)(F)F)cc1 (stereo not shown) [Example 31, N,N-Dimethyl-1-[4-(trifluoromethyl)phenyl]-3-(1-naphthalenyloxy)propanamineoxalate] | 195 nM |
| NC(CCOc1cccc2ccccc12)c1ccccc1Cl (stereo not shown) [Example 10, 1-(2-Chlorophenyl)-3-(1-naphthalenyloxy)propanamine oxalate] | 76 nM |
| CN(C)C(CCOc1cccc2ccccc12)c1ccc(Cl)cc1 (stereo not shown) [Example 15, N,N-Dimethyl-1-(4-chlorophenyl)-3-(1-naphthalenyloxy)propanamine oxalate] | 110 nM |
| CNC(CCOc1ccc(C)c2ccccc12)c1ccccc1 (stereo not shown) [Example 3, N-Methyl-1-phenyl-3-(4-methyl-1-naphthalenyloxy)propanamine oxalate] | 37 nM |
| COc1ccc(C(CCOc2cccc3ccccc23)N(C)C)cc1 (stereo not shown) [Example 17, N,N-Dimethyl-1-(4-methoxyphenyl)-3-(1-naphthalenyloxy)propanamine oxalate] | 32 nM |
| CN(C)C(CCOc1cccc2ccccc12)c1cccc(Cl)c1 (stereo not shown) [Example 13, N,N-Dimethyl-1-(3-chlorophenyl)-3-(1-naphthalenyloxy)propanamine oxalate] | 72 nM |
| NC(CCOc1cccc2ccccc12)c1ccccc1C(F)(F)F (stereo not shown) [Example 6, 1-[2-(Trifluoromethyl)phenyl]-3-(1-naphthalenyloxy)propanamine oxalate] | 180 nM |

| SMILES | IC50 |
| --- | --- |
| CN(C)C(CCOc1cccc2ccccc12)c1ccccc1 (single isomer, unassigned) [Example 37, (-)-N,N-Dimethyl-1-phenyl-3-(1-naphthalenyloxy)propanamine (-)-tartrate] | 35 nM |
| CN(C)C(CCOc1ccc(C(F)(F)F)c2ccccc12)c1ccccc1 (stereo not shown) [Example 29, N,N-Dimethyl-1-phenyl-3-[4-(trifluoromethyl)-1-naphthalenyloxy)propanamine oxalate] | 800 nM |
| COc1cccc(C(CCOc2cccc3ccccc23)N(C)C)c1 (stereo not shown) [Example 19, N,N-Dimethyl-1-(3-methoxyphenyl)-3-(1-naphthalenyloxy)propanamine oxalate] | 29 nM |
| COc1cccc(C(N)CCOc2cccc3ccccc23)c1 (stereo not shown) [Example 18, 1-(3-Methoxyphenyl)-3-(1-naphthalenyloxy)propanamine hydrochloride] | 84 nM |
| COc1ccc(OCCC(c2ccccc2)N(C)C)c2ccccc12 (stereo not shown) [Example 5, N,N-Dimethyl-1-phenyl-3-(4-methoxy-1-naphthalenyloxy)propanamine oxalate] | 210 nM |
| CN(C)C(CCOc1cccc2ccccc12)c1ccccc1 (stereo not shown) [Example 27, N,N-Dimethyl-1-phenyl-3-(1-naphthalenyloxy)propanamine oxalate] | 10 nM |
| COc1ccc(C(N)CCOc2cccc3ccccc23)cc1 (stereo not shown) [Example 16, 1-(4-Methoxyphenyl)-3-(1-naphthalenyloxy)propanamine oxalate] | 100 nM |
| CN(C)C(CCOc1cccc2ccccc12)c1ccccc1 (single isomer, unassigned) [Example 36, (+)-N,N-Dimethyl-1-phenyl-3-(1-naphthalenyloxy)propanamine (+)-tartrate] | 10 nM |
| NC(CCOc1cccc2ccccc12)c1cccc(Cl)c1 (stereo not shown) [Example 12, 1-(3-Chlorophenyl)-3-(1-naphthalenyloxy)propanamine oxalate] | 150 nM |
| COc1ccccc1C(CCOc1cccc2ccccc12)N(C)C (stereo not shown) [Example 21, N,N-Dimethyl-1-(2-methoxyphenyl)-3-(1-naphthalenyloxy)propanamine oxalate] | 16 nM |
| Cc1ccc(OCCC(N)c2ccccc2)c2ccccc12 (stereo not shown) [Example 1, 1-Phenyl-3-(4-methyl-1-naphthalenyloxy)propanamine oxalate] | 90 nM |
| CN(C)C(CCOc1ccc(Cl)c2ccccc12)c1ccccc1 (stereo not shown) [Example 34, N,N-Dimethyl-1-phenyl-3-(4-chloro-1-naphthalenyloxy)propanamine oxalate] | 88 nM |
| CN(C)C(CCOc1cccc2ccccc12)c1ccc(F)cc1 (stereo not shown) [Example 25, N,N-Dimethyl-1-(4-fluorophenyl)-3-(1-naphthalenyloxy)propanamine oxalate] | 50 nM |
| NC(CCOc1cccc2ccccc12)c1ccc(Cl)cc1 (stereo not shown) [Example 14, 1-(4-Chlorophenyl)-3-(1-naphthalenyloxy)propanamine oxalate] | 400 nM |
| Cc1ccc(C(CCOc2cccc3ccccc23)N(C)C)cc1 (stereo not shown) [Example 26, N,N-Dimethyl-1-(4-methylphenyl)-3-(1-naphthalenyloxy)propanamine oxalate] | 80 nM |

Same assay, conditions: at 1000 nM; numbers in parentheses; 50 nM 3H-5HT, 37° C., 5 min

| SMILES | percent inhibition at 1000 nM |
| --- | --- |
| COc1ccccc1C(N)CCOc1cccc2ccccc12 (stereo not shown) [Example 20, 1-(2-Methoxyphenyl)-3-(1-naphthalenyloxy)propanamine oxalate] | 25% |
| COc1ccc(OCCC(N)c2ccccc2)c2ccccc12 (stereo not shown) [Example 4, 1-Phenyl-3-(4-methoxy-1-naphthalenyloxy)propanamine oxalate] | 39% |
| NC(CCOc1cccc2ccccc12)c1cccc(C(F)(F)F)c1 (stereo not shown) [Example 8, 1-[3-(Trifluoromethyl)phenyl]-3-(1-naphthalenyloxy)propanamine oxalate] | 43% |
